Earlier results, collected in patent US9078816B2, “Buccal, polar and non-polar spray containing ondansetron” (Suda Ltd., priority 1997, dated 2015).

What was measured:
[1] = include headaches, constipation, and dizziness

In the case of `Cc1nccn1CC1CCc2c(c3ccccc3n2C)C1=O` (stereo not drawn) [Ondansetron], the metabolism (liver) is listed as “extensively metabolized by the liver”, the oral bioavailability (oral administration) is listed as “about 60%” and the adverse effects [1] is listed as “mild”.
